In US20050288323A1, “Octahydro-indolizine and quinolizine and hexahydro-pyrrolizine” (priority 2000, published 2005) one finds Ki data, which are given here for 37 compounds.

Each structure is given as a SMILES string.

In one test the target is T1, human histamine H3 receptor (Homo sapiens, UniProt Q9Y5N1).
T1 construct: One microgram of supercoiled H3 receptor cDNA was added to the cells and mixed; expressed in transfected cells; membranes
T1 sequence (Q9Y5N1 whole entry): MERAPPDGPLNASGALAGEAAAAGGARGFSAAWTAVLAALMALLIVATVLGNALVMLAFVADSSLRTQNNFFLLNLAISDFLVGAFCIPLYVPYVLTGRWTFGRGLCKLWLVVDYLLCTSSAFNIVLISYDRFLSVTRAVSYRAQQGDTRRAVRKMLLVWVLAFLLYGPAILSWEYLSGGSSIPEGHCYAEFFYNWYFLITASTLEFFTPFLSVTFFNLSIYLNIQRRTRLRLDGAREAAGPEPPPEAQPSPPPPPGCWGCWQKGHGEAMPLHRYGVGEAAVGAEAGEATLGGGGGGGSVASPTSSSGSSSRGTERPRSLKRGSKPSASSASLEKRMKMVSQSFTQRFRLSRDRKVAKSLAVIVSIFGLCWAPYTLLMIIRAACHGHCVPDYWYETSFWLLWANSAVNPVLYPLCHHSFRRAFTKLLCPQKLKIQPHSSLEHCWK
Kind of test: [3H]-N-methylhistamine binding. As to conditions: Table 2; [3H]-N-methylhistamine binding. As for the experimental part:
Thus in the present invention receptor binding was determined using the human histamine H3 receptor (See Lovenberg et al Mol. Pharmacol. 1999, 1107). Screening using the human receptor is particularly important for the identification of new therapies for the treatment of human disease. Conventional binding assays for example are determined using rat synaptosomes (Garbarg et al J. Pharmacol. Exp. Ther. 1992, 263, 304), rat cortical membranes (West et al Mol. Pharmacol. 1990, 610), and guinea pig brain (Korte et al Biochem. Biophys. Res. Commun. 1990, 978). Only limited studies have been performed previously using human tissue but these allude to significant differences in the pharmacology of rodent and primate receptors (West et al Eur. J. Pharmacol. 1999, 233).
Transfection of Cells with Human Histamine Receptor
A 10 cm tissue culture dish with a confluent monolayer of SK-N-MC cells was split two days prior to transfection. Using sterile technique the media was removed and the cells were detached from the dish by the addition of trypsin. One fifth of the cells were then placed onto a new 10 cm dish. Cells were grown in a 37° C. incubator with 5% CO2 in Minimal Essential Media Eagle with 10% Fetal Bovine Serum. After two days cells were approximately 80% confluent. These were removed from the dish with trypsin and pelleted in a clinical centrifuge. The pellet was then re-suspended in 400 μL complete media and transferred to an electroporation cuvette with a 0.4 cm gap between the electrodes (Bio-Rad #165-2088). One microgram of supercoiled H3 receptor cDNA was added to the cells and mixed. The voltage for the electroporation was set at 0.25 kV, the capacitance was set at 960 μF. After electroporation the cells were diluted into 10 mL complete media and plated onto four 10 cm dishes. Because of the variability in the efficiency of electroporation, four different concentrations of cells were plated. The ratios used were; 1:20, 1:10, 1:5, with the remainder of the cells being added to the fourth dish. The cells were allowed to recover for 24 hours before adding the selection media (complete media with 600 μg/mL G418). After 10 days dishes were analyzed for surviving colonies of cells. Dishes with well isolated colonies were used. Cells from individual colonies were isolated and tested. SK-N-MC cells were used because they give efficient coupling for inhibition of adenylate cyclase. The clones that gave the most robust inhibition of adenylate cyclase in response to histamine were used for further study.
[^3H]-N-methylhistamine Binding
Cell pellets from histamine H3 receptor-expressing SK-N-MC cells were homogenized in 20 mM TrisHCl/0.5 mM EDTA. Supernatants from a 800 g spin were collected, recentrifuged at 30,000 g for 30 minutes. Pellets were re-homogenized in 50 mM Tris/5 mM EDTA (pH 7.4). Membranes were incubated with 0.8 nM [^3H]-N-methylhistamine plus/minus test compounds for 45 min at 25° C. and harvested by rapid filtration over GF/C glass fiber filters (pretreated with 0.3% polyethylenimine) followed by four washes with ice cold buffer. Filters were dried, added to 4 mL scintillation cocktail and then counted on a liquid scintillation counter. Non-specific binding was defined with 10 μM histamine. The pKi values were calculated based on a Kd of 800 pM and a ligand concentration ([L]) of 800 pM according to the formula: Ki=(IC50)/(1+([L]/(Kd))
`c1ccc(Sc2ccc([C@H]3CC[C@H]4CCCCN43)cc2)nc1` (racemic) [Example 28] registered an inhibition constant Ki of 0.205 µM.

Take `c1cncc(Oc2ccc([C@H]3CC[C@H]4CCCCN43)cc2)c1` (racemic) [Example 29]: affinity was put at a Ki of 0.15 µM.

For `c1ccc2[nH]c(Oc3ccc([C@H]4CC[C@H]5CCCCN54)cc3)nc2c1` (racemic) [Example 30], the Ki was 0.49 µM. Against the preceding compound, the Ki is about 3.3-fold higher.

`c1cnc(Sc2ccc([C@H]3CC[C@H]4CCCCN43)cc2)nc1` (racemic) [Example 32] showed a Ki of 0.65 µM.

As for `O=c1[nH]c(Sc2ccc([C@H]3CC[C@H]4CCCCN43)cc2)nc2ccccc12` (racemic) [Example 33], the inhibitory constant (Ki) was found to be 0.163 µM.

Take `N#Cc1ccc(Sc2ccc([C@H]3CC[C@H]4CCCCN43)cc2)cc1` (racemic) [Example 38]: the Ki was 0.558 µM. Compared with the last compound, the Ki is about 3.4-fold higher.

Still in this test, the particulars now being: Table 3; [3H]-N-methylhistamine binding.
On to `Nc1cccc(-c2ccc([C@H]3CC[C@H]4CCCCN43)cc2)c1` (racemic) [Example 48], for which affinity was put at a Ki of 0.665 µM.

The compound `c1cc(-c2ccc([C@H]3CC[C@H]4CCCCN43)cc2)cs1` (racemic) [Example 49] returned a Ki of 0.503 µM.

As for `O=Cc1ccsc1-c1ccc([C@H]2CC[C@H]3CCCCN32)cc1` (racemic) [Example 51], the affinity, expressed as Ki, was 0.132 µM.

As to `O=Cc1ccc(-c2ccc([C@H]3CC[C@H]4CCCCN43)cc2)cc1` (racemic) [Example 52], the Ki was found to be 0.221 µM.

Compound `Fc1ccc(-c2ccc([C@H]3CC[C@H]4CCCCN43)cc2)cc1` (racemic) [Example 53] showed an inhibitory constant (Ki) of 0.415 µM.

Still in this test, the particulars now being: [3H]-N-methylhistamine 0.8 nM, membranes of H3 receptor-expressing SK-N-MC cells.
On to `O=[N+]([O-])c1ccc(Sc2ccc([C@@H]3CCC[C@@H]4CCCN43)cc2)cc1` (racemic) [Example 27, 5-[4-(4-Nitrophenylthio)phenyl]octahydroindolizine], for which the affinity corresponds to a Ki of 0.323 µM.

In turn, `c1ccc2c(Oc3ccc([C@H]4CC[C@H]5CCCCN54)cc3)ncnc2c1` (racemic) [Example 34, 4-[4-(Octahydro-indolizin-3-yl)-phenoxy]-quinazoline] gave an inhibition constant Ki of 0.092 µM.

`Nc1ccc(Sc2ccc([C@@H]3CCC[C@@H]4CCCN43)cc2)cc1` (racemic) [Example 39, 5-(4-(4-Aminophenylthio)phenyl)octahydroindolizine]: the Ki was 0.075 µM.

Take `Nc1ccc(Sc2ccc([C@H]3CC[C@H]4CCCCN43)cc2)cc1` (racemic) [Example 40, tran-3-[4-(4-Aminophenylthio)phenyl]octahydroindolizine]: the Ki came to 0.062 µM.

In the case of `CS(=O)(=O)Nc1ccc(Sc2ccc([C@@H]3CCC[C@@H]4CCCN43)cc2)cc1` (racemic) [Example 41, 5-[4-(4-Methanesulfonaminophenylthio)phenyl]octahydroindolizine], the inhibition constant Ki came out at 0.075 µM. The Ki values of the last two compounds are within 1.5-fold of each other.

For `O=C(O)c1ccc(Sc2ccc([C@H]3CC[C@H]4CCCCN43)cc2)cc1` (racemic) [Example 42, tran-3-[4-(4-Carboxylicphenylthio)phenyl]octahydroindolizine], the inhibition constant Ki worked out at 0.021 µM. This Ki is about 3.6-fold lower than that of the compound before.

In turn, `NC(=NO)c1ccc(Sc2ccc([C@H]3CC[C@H]4CCCCN43)cc2)cc1` (racemic) [Example 43, tran-3-[4-((4-Amidoxime)phenylthio)phenyl]octahydroindolizine] showed a Ki of 0.04 µM. Against the preceding compound, the Ki is about 1.9-fold higher.

For `NCc1ccc(Sc2ccc([C@H]3CC[C@H]4CCCCN43)cc2)cc1` (racemic) [Example 44], the inhibition constant Ki is 0.009 µM. This Ki lies about 4.4-fold lower than the previous one.

In turn, `c1csc(-c2ccc([C@H]3CC[C@H]4CCCCN43)cc2)c1` (racemic) [Example 50, 3-(4-Thiophen-2-yl-phenyl)-octahydro-indolizine] gave a Ki of 0.173 µM.

Take `CN(C)CCNc1cccc([C@H]2CC[C@H]3CCCCN32)c1` (racemic) [Example 56, tran-3-[4-(3-(2-Dimethylaminoethyl)amino)phenyl]octahydroindolizine]: the inhibition constant Ki amounted to 0.075 µM.

In turn, `Oc1ccc([C@@H]2CCC[C@@H]3CCCN32)cc1` (racemic) [Example 60, 5-(4-Hydroxyphenyl)octahydroindolizine] displayed a Ki of 1.4 µM.

In the case of `ClCCCCOc1ccc([C@@H]2CCC[C@@H]3CCCN32)cc1` (racemic) [Example 61, 5-[4-(4-Chlorobutanoxy)phenyl]octahydroindolizine], the Ki stood at 0.278 µM.

Take `c1cc([C@@H]2CCC[C@@H]3CCCN32)ccc1OCCCCN1CCCCC1` (racemic) [Example 62]: the Ki came to 0.0007 µM.

Take `c1cc([C@@H]2CCC[C@@H]3CCCN32)ccc1OCCN1CCCCC1` (racemic) [Example 63, 5-[4-(2-Piperidinylethanoxy)phenyl]octahydroindolizine]: the Ki is 0.005 µM.

Consider `c1cc([C@@H]2CCC[C@@H]3CCCN32)ccc1OCCCN1CCCCC1` (racemic) [Example 64, 5-[4-(3-Piperidinylpropoxy)phenyl]octahydroindolizine], for which the affinity, expressed as Ki, was 0.0007 µM. This Ki is about 7.1-fold lower than that of the compound before.

Turning to `c1cc(OCCCN2CCCCC2)cc([C@H]2C[C@@H]3CCCCN3C2)c1` (racemic) [Example 72, anti-2-[3-(3-Piperidinylpropyloxy)phenyl]octahydroindolizine], affinity was put at a Ki of 0.0003 µM. Compared with the last compound, the Ki is about 2.3-fold lower.

The compound `C(=C\c1ccc([C@H]2CC[C@H]3CCCCN32)cc1)/c1ccncc1` (racemic) [Example 73, trans-3-[4-(4-Pyridinylethenyl)phenyl]octahydroindolizine] displayed a Ki of 0.065 µM.

In turn, `C[Si](C)(C)C#Cc1ccc([C@H]2CC[C@H]3CCCCN32)cc1` (racemic) [Example 74, trans-3-(4-trimethylsilylacetylenephenyl)octahydroindolizine] showed a Ki of 1.5 µM.

In turn, `C#Cc1ccc([C@H]2CC[C@H]3CCCCN32)cc1` (racemic) [Example 75, trans-3-(4-acetylenephenyl)octahydroindolizine] returned a Ki of 1.1 µM.

Take `c1cc(Oc2ccc([C@H]3CC[C@H]4CCCCN43)cc2)ccn1` (racemic) [Example 76, trans-3-[4-(4-Pyridyloxy)phenyl]octahydroindolizine]: the inhibition constant Ki was 0.077 µM.

`O=[N+]([O-])c1ccc(Oc2ccc([C@H]3CC[C@H]4CCCCN43)cc2)cc1` (racemic) [Example 77, trans-3-[4-(4-Nitrophenoxy)phenyl]octahydroindolizine]: the Ki amounted to 1.56 µM.

With `Nc1ccc(Oc2ccc([C@H]3CC[C@H]4CCCCN43)cc2)cc1` (racemic) [Example 78, trans-3-[4-(4-Aminophenoxy)phenyl]octahydroindolizine], the inhibition constant Ki was found to be 0.296 µM.

As for `CS(=O)(=O)Nc1ccc(Oc2ccc([C@H]3CC[C@H]4CCCCN43)cc2)cc1` (racemic) [Example 79, trans-3-[4-(4-Methansulfonaminophenoxy)phenyl]octahydroindolizine], the Ki is 0.046 µM.

In turn, `CS(=O)(=O)N(c1cccc(COc2ccc([C@H]3CC[C@H]4CCCCN43)cc2)c1)S(C)(=O)=O` (racemic) [Example 82, trans-3-[4-(3-bis-Methansulfonaminobenzyloxy)phenyl]octahydroindolizine] returned a Ki of 0.128 µM. Against the preceding compound, the Ki is about 2.8-fold higher.

With `CS(=O)(=O)Nc1cccc(COc2ccc([C@H]3CC[C@H]4CCCCN43)cc2)c1` (racemic) [Example 83, trans-3-[4-(3-Methansulfonaminobenzyloxy)phenyl]octahydroindolizine], the affinity corresponds to a Ki of 0.308 µM.

The test is the same for the next values; noted with them: [3H]-N-methylhistamine binding; value printed under example heading without unit.
`O/N=C\c1ccsc1-c1ccc([C@H]2CC[C@H]3CCCCN32)cc1` (racemic) [Example 54, tran-3-[4-(3-hydroxyiminomethylthienyl)phenyl]octahydroindolizine]: the inhibition constant (Ki) was determined as 1.48 µM.
